Measured values published in article PMC5361079 (Scientific Reports, 2017).

Legend:
[1] = Cardiac tissue concentrations in anesthetized guinea pigs; format: in vivo, guinea pig; settings: end of IV infusions, prodrug alone or + amiodarone
[2] = tested on: anesthetized, male Dunkin-Hartley guinea pigs; experiment: Heart rate in anesthetized guinea pigs, IV infusion; format: in vivo, guinea pig
Source text: Adult, male Dunkin-Hartley guinea pigs (350–550 g) were anesthetized and instrumented as previously described[7][29].

[3] = Plasma concentration in conscious rhesus monkeys; settings: at the end of the MNI-2+amiodarone experiment
Experimental: (§1) Arterial BP and ECG waveforms from four chronically-instrumented male, rhesus monkeys (8-16 kg at time of study, approximately 5–8 years of age), were continuously recorded (Notocord-hem™ v 4.3.0.67) and analyzed as described. Prior to study, animals were acclimated to the restraint chair and the laboratory environment over multiple sessions. […] MNI-2 was formulated in 30% Captisol®. […] Samples were placed on wet ice, centrifuged at 4 °C and plasma removed and stored at −70 °C until analysis of concentration of test agents and any metabolites of interest.

[4] = tested on: conscious, male rhesus monkeys; experiment: Heart rate, MBP and ECG intervals in conscious, restrained rhesus monkeys; format: in vivo, rhesus monkey
Experimental: as §1

[5] = Plasma concentration in anesthetized guinea pigs; settings: IV
Source text: Adult, male Dunkin-Hartley guinea pigs (350–550 g) were anesthetized and instrumented as previously described.

hiPSC-CMs = experiment: Intracellular prodrug, cleavage intermediate metabolite and NTP metabolite concentrations in hiPSC-CMs; format: in vitro ADME, human; settings: for Intracellular Concentration, Prodrug / Intracellular Concentration, Cleavage Intermediate Metabolite / Intracellular Concentration, NTP Metabolite: hiPSC-CMs; for Intracellular Concentration, Cleavage Intermediate Metabolite / Intracellular Concentration, NTP Metabolite: BLOQ = below 17 pmol/million cells
Experimental: Approximately 18 h before dosing, iCell hiPSC-CMs were switched to iCell cardiomyocyte maintenance media free of Penicillin/Streptomycin. […] […] After the corresponding treatment, cells were washed 2x with 200 μL of ice-cold magnesium- and calcium-free PBS buffer. Cells were then lysed in 100 μL of ice-cold lysis solution (70/30 methanol/water containing 20 mM EDTA and 20 mM EGTA, pH 8) by pipetting up and down 5 times. Plates were sealed and transferred on dry ice for determination of prodrug, cleavage intermediate metabolite, and NTP metabolite concentrations. Intracellular prodrug concentrations were measured using a reversed phase HPLC- high resolution mass spectrometry method. A dimethylhexylamine based ion-pairing HPLC-MS/MS method was used to measure intracellular cleavage intermediate metabolite and NTP metabolite concentrations. Intracellular concentrations (pmol/million cells) of prodrug, cleavage intermediate metabolite, and NTP metabolite were quantitated against calibration standards of the same analytes prepared from control iCell hiPSC-CM lysates.
For prodrug analyses, full scan high resolution mass spectrometry data was collected using an Exactive™ Orbitrap mass spectrometer with an electrospray source operated in the positive ion mode. Prodrug chromatograms were extracted from full scan high resolution mass spectrometry data for the masses indicated in Supplementary Table 5. Absence of endogenous interference(s) was verified by extracting the same ion from full scan high resolution mass spectrometry chromatograms of unspiked control cell lysates. For the cleavage intermediate metabolite and NTP metabolite an electrospray MS/MS method run on a SCIEX API 4000 mass spectrometer with turboV ionspray source was used in negative ion mode monitoring the transitions indicated in Supplementary Table 5. Absence of endogenous interference(s) was verified by monitoring of the same MRM transitions for unspiked control cell lysates. Measured intracellular prodrug, cleavage intermediate metabolite, and NTP metabolite concentrations (in pmol/million cells units) were tabulated (Table 2).

hiPSC-CM syncytia = experiment: Spontaneous FP rate and IMP amplitude/beating rate in hiPSC-CM syncytia (RTCA CardioECR / RTCA Cardio); format: cell-based, human; settings: for Effect on FP rate / Effect on IMP amplitude: prodrug co-administered with 0.3 μM amiodarone, steady state (4 h), spontaneously beating hiPSC-CM syncytia
Experimental: hiPSC-CMs (iCells®) from Cellular Dynamics International (CDI, Madison, WI, USA) were seeded onto 48-well CardioECR or 96-well Cardio E-Plates® (ACEA Biosciences Inc., San Diego, CA, USA) coated with 10 μg/mL fibronectin (Sigma Aldrich, Catalog# F1141) at 30,000 cells/well, following manufacturer’s recommendations. Cells were maintained in culture (37 °C, 5% CO2) for a period of 14 days with iCell Maintenance® media (CDI, Madison, WI, USA) exchanged every 2–3 days. Compound addition was only performed on or after Day 14 following cell seeding.
Compound stock solutions were prepared in 100% DMSO or H2O. On the day of compound addition, the media was exchanged with fresh iCell Maintenance® media and allowed to equilibrate for at least 3 h in the incubator. The plates were read on an xCELLigence® RTCA CardioECR or RTCA Cardio (ACEA Biosciences Inc., San Diego, CA, USA). Control pre-reads to establish a baseline were recorded for at least 45 minutes (4 reads at 15-min intervals) prior to compound addition. The compound stock solutions were diluted into iCell Maintenance® media and quickly added to the plate. The plate was continuously monitored for at least 18 h following compound addition. IMP data were sampled at 12 ms (83 Hz), while FP rate data were collected at 0.1 ms (10 KHz). Attachment, growth and viability of syncytia were monitored by means of the baseline IMP signal, as previously described. IMP and FP signals were only interpreted if the baseline IMP was maintained throughout the measurement period (usually ≤18 hrs) at ≥70% of the value before test compound application (pre-read value).

[6] = tested on: conscious, male rhesus monkeys; settings: intravenous infusion of MK-3682 after AMIO pretreatment; cited from earlier work
[7] = 10 μM prodrug + 0.3 μM amiodarone, 4 Hours
[8] = 10 μM prodrug + 0.3 μM amiodarone, 30 Min

Row | Structure (SMILES) | Intracellular Concentration, Prodrug (hiPSC-CMs; [7]) [pmol/million cells] | Intracellular Concentration, Cleavage Intermediate Metabolite (hiPSC-CMs; [7]) | Intracellular Concentration, NTP Metabolite (hiPSC-CMs; [7]) | Intracellular Concentration, Prodrug (hiPSC-CMs; [8]) [pmol/million cells] | Intracellular Concentration, Cleavage Intermediate Metabolite (hiPSC-CMs; [8]) | Intracellular Concentration, NTP Metabolite (hiPSC-CMs; [8]) | Intracellular Concentration, Prodrug (hiPSC-CMs; 10 μM prodrug alone, 4 Hours) [pmol/million cells] | Intracellular Concentration, Cleavage Intermediate Metabolite (hiPSC-CMs; 10 μM prodrug alone, 4 Hours) | Intracellular Concentration, NTP Metabolite (hiPSC-CMs; 10 μM prodrug alone, 4 Hours) | Intracellular Concentration, Prodrug (hiPSC-CMs; 10 μM prodrug alone, 30 Min) [pmol/million cells] | Intracellular Concentration, Cleavage Intermediate Metabolite (hiPSC-CMs; 10 μM prodrug alone, 30 Min) | Intracellular Concentration, NTP Metabolite (hiPSC-CMs; 10 μM prodrug alone, 30 Min) | Effect on FP rate (hiPSC-CM syncytia) | Effect on IMP amplitude (hiPSC-CM syncytia) | also measured
1 | CC(C)OC(=O)[C@@H](C)NP(=O)(OC[C@H]1O[C@@H](n2ccc(=O)[nH]c2=O)[C@](C)(F)[C@@H]1O)Oc1ccccc1 (stereo partly drawn) [MNI-2, isopropyl (2R)-2-[[[(2R,3R,4R,5R)-5-(2,4-dioxopyrimidin-1-yl)-4-fluoro-3-hydroxy-4-methyl-tetrahydrofuran-2-yl]methoxy-phenoxy-phosphoryl]amino]propanoate] | 61.0 ± 3.3 | BLOQ | BLOQ | 54.8 ± 3.3 | BLOQ | BLOQ | 173.0 ± 133.3 | BLOQ | BLOQ | 53.5 ± 4.5 | BLOQ | BLOQ | lack of effects | lack of effects | Cleavage intermediate metabolite and NTP metabolite in cardiac tissue [1]: did not produce detectable levels; HR, % change from baseline ([2]; coadministration of 10 mg/kg MNI-2 and 2.5 mg/kg amiodarone IV (cumulative)): −9%; HR, % change from baseline ([2]; cumulative IV infusion dose 10 mg/kg MNI-2 alone): −3%; Plasma concentration [3]: 3048 ± 413 ng/mL; Effect on HR ([4]; IV infusion of MNI-2 (4, then 2 mg/kg/30 min), alone or after prior administration of amiodarone (3 mg/kg/30 min)): no effect; MBP or PR, QRS, QT ECG interval changes ([4]; IV infusion of MNI-2 alone or after pretreatment with amiodarone): did not result in MBP or PR, QRS, QT ECG interval changes; Plasma concentration of parent ([5]; agent + vehicle, End of Infusion 1): 4.2 ± 2.1 µM; Plasma concentration of parent ([5]; agent + vehicle, End of Infusion 2): 4.2 ± 0.9 µM; Plasma concentration of parent ([5]; agent + vehicle, End of Infusion 3): 3.9 ± 0.1 µM; Plasma concentration of parent ([5]; agent + vehicle, End of Infusion 4): 3.7 ± 1.0 µM; Plasma concentration of parent ([5]; treatment MNI-2+AMIO, End of Infusion 1): 3.0 ± 0.8 µM; Plasma concentration of parent ([5]; treatment MNI-2+AMIO, End of Infusion 2): 3.5 ± 1.0 µM; Plasma concentration of parent ([5]; treatment MNI-2+AMIO, End of Infusion 3): 3.7 ± 0.6 µM; Plasma concentration of parent ([5]; treatment MNI-2+AMIO, End of Infusion 4): 3.7 ± 0.9 µM; Detection of cleavage intermediate metabolite or NTP in hiPSC-CMs (hiPSC-CMs; following application of prodrug (10 μM) ± amiodarone): no measurable concentrations; Effects on IMP-measured beating rate and IMP amplitude (hiPSC-CM syncytia; 10 μM prodrug combined with 0.3 μM amiodarone, up to 18 h): failed to evoke changes over each drug alone
2 | CC(C)OC(=O)[C@@H](C)NP(=O)(OC[C@H]1O[C@@H](n2ccc(=O)[nH]c2=O)[C@](C)(Cl)[C@@H]1O)Oc1ccccc1 (stereo partly drawn) [MK-3682, isopropyl (2R)-2-[[[(2R,3R,4R,5R)-4-chloro-5-(2,4-dioxopyrimidin-1-yl)-3-hydroxy-4-methyl-tetrahydrofuran-2-yl]methoxy-phenoxy-phosphoryl]amino]propanoate] | 91.9 ± 12.4 | BLOQ | BLOQ | 95.0 ± 6.7 | BLOQ | BLOQ | 100.4 ± 13.2 | BLOQ | BLOQ | 89.8 ± 12.9 | BLOQ | BLOQ | lack of effects | lack of effects | Bradycardia and bradyarrhythmia [6]: not observed
